Experimental data reported in the kinase profiling compilation of Christmann-Franck et al. (2016).

Assays:
ALK (human) = ALK (human) (UniProt Q9UM73); test: KINOMEscan competition binding; settings: compound 10.0 µM
RPS6KA6 KD2 (human) = RPS6KA6 KD2 (human) (UniProt Q9UK32); test: KINOMEscan competition binding; settings: compound 10.0 µM
[1] = system: ABL1 (human), P00519 [F317I]; test: KINOMEscan competition binding; settings: compound 10.0 µM
MAPK7 (human) = MAPK7 (human) (UniProt Q13164); test: KINOMEscan competition binding; settings: compound 10.0 µM
MAPK7 (human), sequence (Q13164 whole entry, looked up): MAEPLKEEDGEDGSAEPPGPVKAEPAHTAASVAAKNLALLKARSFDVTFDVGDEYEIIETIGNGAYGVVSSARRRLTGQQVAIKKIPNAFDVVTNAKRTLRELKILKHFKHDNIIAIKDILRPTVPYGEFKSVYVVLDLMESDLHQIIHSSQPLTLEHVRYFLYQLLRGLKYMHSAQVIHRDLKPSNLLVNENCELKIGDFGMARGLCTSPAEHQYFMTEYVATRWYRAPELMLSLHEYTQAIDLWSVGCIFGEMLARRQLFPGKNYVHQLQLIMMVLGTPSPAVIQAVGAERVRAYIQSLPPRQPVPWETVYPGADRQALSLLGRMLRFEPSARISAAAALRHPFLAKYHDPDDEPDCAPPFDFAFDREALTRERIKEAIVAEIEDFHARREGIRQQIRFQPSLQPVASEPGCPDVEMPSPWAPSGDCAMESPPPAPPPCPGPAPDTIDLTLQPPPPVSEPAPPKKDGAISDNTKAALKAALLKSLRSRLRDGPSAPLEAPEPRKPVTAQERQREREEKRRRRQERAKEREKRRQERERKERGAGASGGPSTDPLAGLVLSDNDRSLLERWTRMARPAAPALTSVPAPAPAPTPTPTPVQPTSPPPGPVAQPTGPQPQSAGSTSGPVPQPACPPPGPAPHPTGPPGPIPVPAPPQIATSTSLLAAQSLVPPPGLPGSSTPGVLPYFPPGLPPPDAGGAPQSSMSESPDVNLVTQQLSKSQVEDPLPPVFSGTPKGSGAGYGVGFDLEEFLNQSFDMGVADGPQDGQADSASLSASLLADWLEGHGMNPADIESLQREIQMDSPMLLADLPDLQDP

GAK (human) = GAK (human) (UniProt O14976); test: KINOMEscan competition binding; settings: compound 10.0 µM
DCLK2 (human) = DCLK2 (human) (UniProt Q8N568); test: KINOMEscan competition binding; settings: compound 10.0 µM
TNK1 (human) = TNK1 (human) (UniProt Q13470); test: KINOMEscan competition binding; settings: compound 10.0 µM
PLK4 (human) = PLK4 (human) (UniProt O00444); test: KINOMEscan competition binding; settings: compound 10.0 µM
RPS6KA1 KD2 (human) = RPS6KA1 KD2 (human) (UniProt Q15418); test: KINOMEscan competition binding; settings: compound 10.0 µM
TTK (human) = TTK (human) (UniProt P33981); test: KINOMEscan competition binding; settings: compound 10.0 µM
ROS1 (human) = ROS1 (human) (UniProt P08922); test: KINOMEscan competition binding; settings: compound 10.0 µM
DCLK1 (human) = DCLK1 (human) (UniProt O15075); test: KINOMEscan competition binding
DCLK1 (human), sequence (O15075 whole entry, looked up): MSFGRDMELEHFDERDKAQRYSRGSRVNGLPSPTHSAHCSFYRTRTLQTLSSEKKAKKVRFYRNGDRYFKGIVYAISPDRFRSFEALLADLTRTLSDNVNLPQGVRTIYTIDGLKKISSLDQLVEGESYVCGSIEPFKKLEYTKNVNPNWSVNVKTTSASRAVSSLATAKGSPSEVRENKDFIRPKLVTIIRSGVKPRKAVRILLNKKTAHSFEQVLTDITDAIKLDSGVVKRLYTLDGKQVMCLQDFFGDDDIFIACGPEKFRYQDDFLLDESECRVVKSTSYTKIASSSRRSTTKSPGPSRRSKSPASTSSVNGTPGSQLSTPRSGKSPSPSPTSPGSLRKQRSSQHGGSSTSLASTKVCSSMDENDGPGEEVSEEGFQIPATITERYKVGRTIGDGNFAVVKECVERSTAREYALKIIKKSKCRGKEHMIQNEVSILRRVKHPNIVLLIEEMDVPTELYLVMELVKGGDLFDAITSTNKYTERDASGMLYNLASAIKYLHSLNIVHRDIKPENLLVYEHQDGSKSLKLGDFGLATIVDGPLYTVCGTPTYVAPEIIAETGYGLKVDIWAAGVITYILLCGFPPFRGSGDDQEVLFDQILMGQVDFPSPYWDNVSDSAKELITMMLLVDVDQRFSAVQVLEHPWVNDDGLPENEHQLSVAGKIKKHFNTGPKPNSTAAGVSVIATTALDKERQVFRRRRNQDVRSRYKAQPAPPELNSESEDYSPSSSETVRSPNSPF

TNK2 (human) = TNK2 (human) (UniProt Q07912); test: KINOMEscan competition binding; settings: compound 10.0 µM
MAP3K2 (human) = MAP3K2 (human) (UniProt Q9Y2U5); test: SelectScreen, TR FRET
MAP3K2 (human), sequence (Q9Y2U5 whole entry, looked up): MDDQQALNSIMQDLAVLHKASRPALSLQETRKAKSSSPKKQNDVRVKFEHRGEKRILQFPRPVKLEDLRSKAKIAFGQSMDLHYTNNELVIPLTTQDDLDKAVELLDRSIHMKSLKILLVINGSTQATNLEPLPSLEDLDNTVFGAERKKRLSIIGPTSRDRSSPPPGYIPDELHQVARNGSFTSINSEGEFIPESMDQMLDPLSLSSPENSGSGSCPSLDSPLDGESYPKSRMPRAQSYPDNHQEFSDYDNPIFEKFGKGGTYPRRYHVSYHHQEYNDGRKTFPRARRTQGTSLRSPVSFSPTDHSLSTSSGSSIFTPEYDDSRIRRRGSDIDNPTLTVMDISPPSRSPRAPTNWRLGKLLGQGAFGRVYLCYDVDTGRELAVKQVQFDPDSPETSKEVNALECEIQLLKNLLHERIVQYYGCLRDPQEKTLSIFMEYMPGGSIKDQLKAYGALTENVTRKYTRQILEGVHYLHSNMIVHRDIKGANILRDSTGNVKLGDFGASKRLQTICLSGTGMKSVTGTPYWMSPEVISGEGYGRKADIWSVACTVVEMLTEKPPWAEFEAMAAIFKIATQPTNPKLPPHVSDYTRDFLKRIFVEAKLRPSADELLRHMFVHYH

TAOK2 (human) = TAOK2 (human) (UniProt Q9UL54); test: SelectScreen, TR FRET
TAOK2 (human), sequence (Q9UL54 whole entry, looked up): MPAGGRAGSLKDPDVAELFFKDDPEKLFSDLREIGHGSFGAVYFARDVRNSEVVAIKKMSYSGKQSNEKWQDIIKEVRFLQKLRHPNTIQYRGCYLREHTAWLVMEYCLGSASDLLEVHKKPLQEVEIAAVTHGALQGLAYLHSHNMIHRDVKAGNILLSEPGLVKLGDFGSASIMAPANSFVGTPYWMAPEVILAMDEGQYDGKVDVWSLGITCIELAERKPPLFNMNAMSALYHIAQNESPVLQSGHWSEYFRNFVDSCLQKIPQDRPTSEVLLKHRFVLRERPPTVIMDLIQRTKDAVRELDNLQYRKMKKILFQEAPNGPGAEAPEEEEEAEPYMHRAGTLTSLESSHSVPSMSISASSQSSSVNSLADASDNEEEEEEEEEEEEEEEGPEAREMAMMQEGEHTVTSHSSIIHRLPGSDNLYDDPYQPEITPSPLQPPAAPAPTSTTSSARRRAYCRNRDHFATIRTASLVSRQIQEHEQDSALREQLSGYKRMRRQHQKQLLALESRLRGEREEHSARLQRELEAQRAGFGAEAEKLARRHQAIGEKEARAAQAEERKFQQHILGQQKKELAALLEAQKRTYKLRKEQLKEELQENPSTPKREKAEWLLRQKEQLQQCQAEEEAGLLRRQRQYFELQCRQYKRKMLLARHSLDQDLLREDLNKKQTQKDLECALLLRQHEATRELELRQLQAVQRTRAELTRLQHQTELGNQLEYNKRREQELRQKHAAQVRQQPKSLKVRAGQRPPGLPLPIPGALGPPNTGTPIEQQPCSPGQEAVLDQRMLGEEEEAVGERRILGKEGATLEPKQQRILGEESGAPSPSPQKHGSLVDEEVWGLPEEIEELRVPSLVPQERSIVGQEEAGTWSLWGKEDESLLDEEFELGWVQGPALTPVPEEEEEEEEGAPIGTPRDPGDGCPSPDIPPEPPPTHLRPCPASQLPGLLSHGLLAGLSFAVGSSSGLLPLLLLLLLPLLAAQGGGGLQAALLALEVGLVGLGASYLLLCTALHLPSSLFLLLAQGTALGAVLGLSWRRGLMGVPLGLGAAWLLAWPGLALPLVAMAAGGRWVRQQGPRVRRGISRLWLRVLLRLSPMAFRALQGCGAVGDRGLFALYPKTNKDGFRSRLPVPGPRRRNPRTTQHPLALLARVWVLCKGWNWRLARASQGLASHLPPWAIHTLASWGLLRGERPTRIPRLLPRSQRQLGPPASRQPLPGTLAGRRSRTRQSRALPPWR

[2] = biological target: LRRK2 (human), Q5S007 [G2019S]; test: SelectScreen, TR FRET
MAP3K3 (human) = MAP3K3 (human) (UniProt Q99759); test: SelectScreen, TR FRET

ABL1 (human), P00519 [F317I], sequence (P00519 whole entry F317I, looked up): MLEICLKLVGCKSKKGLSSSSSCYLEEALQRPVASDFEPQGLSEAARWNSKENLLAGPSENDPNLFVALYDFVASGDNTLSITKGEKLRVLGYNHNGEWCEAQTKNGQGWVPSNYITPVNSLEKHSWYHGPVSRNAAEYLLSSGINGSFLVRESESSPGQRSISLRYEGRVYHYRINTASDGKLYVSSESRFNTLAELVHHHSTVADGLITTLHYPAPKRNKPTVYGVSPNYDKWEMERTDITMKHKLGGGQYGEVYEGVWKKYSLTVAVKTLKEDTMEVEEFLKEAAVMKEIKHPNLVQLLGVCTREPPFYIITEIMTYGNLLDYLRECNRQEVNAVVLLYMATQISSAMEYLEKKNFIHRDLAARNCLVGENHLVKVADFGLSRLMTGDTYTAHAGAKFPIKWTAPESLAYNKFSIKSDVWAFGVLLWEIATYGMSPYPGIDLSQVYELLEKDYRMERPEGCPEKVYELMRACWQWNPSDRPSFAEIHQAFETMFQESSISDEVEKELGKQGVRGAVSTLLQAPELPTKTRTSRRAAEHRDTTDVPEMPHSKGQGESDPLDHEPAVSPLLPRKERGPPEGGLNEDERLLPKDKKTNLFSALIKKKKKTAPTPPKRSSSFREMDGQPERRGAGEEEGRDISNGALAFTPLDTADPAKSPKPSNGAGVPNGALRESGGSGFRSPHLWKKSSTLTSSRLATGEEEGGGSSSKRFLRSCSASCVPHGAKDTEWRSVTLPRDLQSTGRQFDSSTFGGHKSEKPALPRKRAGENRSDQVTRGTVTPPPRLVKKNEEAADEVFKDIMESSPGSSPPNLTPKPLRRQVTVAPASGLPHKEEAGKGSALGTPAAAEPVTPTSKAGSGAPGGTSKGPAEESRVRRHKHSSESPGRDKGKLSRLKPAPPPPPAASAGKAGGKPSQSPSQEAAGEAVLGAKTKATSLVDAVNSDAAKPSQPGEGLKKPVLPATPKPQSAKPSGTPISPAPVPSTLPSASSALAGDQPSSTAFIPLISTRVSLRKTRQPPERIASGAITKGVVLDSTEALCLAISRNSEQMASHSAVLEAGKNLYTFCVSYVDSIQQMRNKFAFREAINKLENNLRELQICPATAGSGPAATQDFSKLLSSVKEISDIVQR

kinase still bound, per cent of control (ALK (human)): 29% | kinase still bound, per cent of control (RPS6KA6 KD2 (human)): 31% | kinase still bound, per cent of control [1]: 30% | kinase still bound, per cent of control (MAPK7 (human)): 0% | kinase still bound, per cent of control (GAK (human)): 31% | kinase still bound, per cent of control (DCLK2 (human)): 0.65% | kinase still bound, per cent of control (TNK1 (human)): 7.8% | kinase still bound, per cent of control (PLK4 (human)): 2.8% | kinase still bound, per cent of control (RPS6KA1 KD2 (human)): 28% | kinase still bound, per cent of control (TTK (human)): 19% | kinase still bound, per cent of control (ROS1 (human)): 15% | Kd (DCLK1 (human)): 97 nM | kinase still bound, per cent of control (DCLK1 (human); compound 10.0 µM): 0.9% | kinase still bound, per cent of control (TNK2 (human)): 17% | IC50 (MAP3K2 (human)): 155 nM | IC50 (TAOK2 (human)): 54.3 nM | IC50 [2]: 2.6 nM | IC50 (MAP3K3 (human)): 120 nM
Compound: CCOc1cc(N2CCC(O)CC2)ccc1Nc1ncc2c(n1)N(C)c1ccccc1C(=O)N2C
